The text below walks through data of patent US20240091319A1, “DUAL-ADMINISTRATION METHODS FOR TREATING RESPIRATORY DISTRESS” (THE TRUSTEES OF THE STEVENS INSTITUTE OF TECHNOLOGY, priority 2021, published 2024).

Where no end group is shown, it is not given here. The star is where a group is joined. Biotin = O=C1N[C@H]2[C@H](CS[C@H]2CCCCC(=O)*)N1

The test system of one assay is immature fetal rat lung. As to the kind of experiment: Opening pressure of the immature fetal rat lung after tracheal instillation (Method 3). The settings on record: 4-5 μl instilled in trachea, embryonic day 18 or 19; with 5% albumin; 1% SURVANTA, 0.0005% SP-C; FIG. 3. The method, then:
Solution (4-5 μl), with solutes as specified, is instilled in the trachea of the fluid-filled immature (embryonic day 18 or 19) fetal rat lung. The pressure required to inflate the fetal rat lung for the first time is proportional to surface tension. […] The sSP-Cff-ion lock used is not biotinylated and is dissolved directly in normal saline without additional solvents. n=1 or 2/group.
Method 3. Opening pressure of the immature fetal rat lung. To inflate the initially liquid-filled fetal lung for the first time, the pressure applied at the trachea must be sufficient to overcome a capillary force that is proportional to the surface tension of the liquid in the lung. Thus, following instillation of a test solution in the trachea of the immature fetal rat lung, the opening pressure of the lung is indicative of the surface tension of the test solution. At embryonic day 18 or 19 (term=day 22), a fetus is delivered from a pregnant rat by uterotomy. […] The opening pressure that causes air to flow into the lungs is recorded, and is proportional to the solution surface tension.

For assay [1] the following is noted: low concentrations, in the presence of albumin; reported in an earlier patent publication; cited from earlier work.
For a further assay, the system named is lungs. To be noted: administered to the lungs; U.S. Pat. Nos. 9,504,796 and 9,693,990; cited from earlier work.
Assay [2] has as its system alveolar-capillary barrier of heterogeneously flooded regions, isolated adult rat lung. As to the kind of experiment: Ventilation 'injury score' in the isolated adult rat lung (Method 2). To be noted: flooding solution in normal saline with 5% albumin; solutes at about the concentrations present in 1% SURVANTA; FIG. 2A. The text has this:
Solutes are at about the same concentrations as present in 1% […]® solution. The surfactant protein B (SP-B) and SP-C used are isolated from pulmonary alveolar proteinosis patients; the SP-C, thus, is likely a mixture of fully-, partially- and non-palmitoylated peptide. Two forms of synthetic SP-C are used. One is sSP-Cff-leuc. […] Due to pre-dissolution of certain solutes, at high concentration, in non-aqueous solvents, the final dipalmitoylphosphatidylcholine (DPPC) solution contains 2% methanol; the final SP-B and SP-C solutions contain 1.6% chloroform and 0.8% methanol; and the final sSP-Cff-leuc solution contains 1.3% chloroform and 1.3% ethanol.
Base solution for all groups is normal saline.
Method 2. Ventilation ‘injury score’ in the isolated adult rat lung. An isolated adult rat lung is perfused with a physiologic solution (i.e. the solution is pumped through the lung vessels, including the capillaries) containing a low concentration of a fluorescent dye verified not to alter surface tension. A surface alveolus of the lung is micropunctured and a non-fluorescent test solution is injected. In experimental regions, a sufficiently large volume of liquid is injected to generate a pattern of heterogeneous alveolar flooding; in control regions, a sufficiently small volume of liquid is injected so that the liquid spontaneously clears from the region, leaving behind a micropunctured-but-aerated region. The region is imaged by confocal microscopy over a five minute baseline period at a constant transpulmonary pressure of 5 cm H2O. Five ventilation cycles are supplied to the lung at 0.33 Hz with the equivalent of a positive end-expiratory pressure of 15 cm H2O and with a tidal volume of 6 ml/kg body weight. The lung is then returned to a constant transpulmonary pressure of 5 cm H2O and imaged for 10 additional minutes. Alveolar liquid fluorescence at all time points is normalized by capillary fluorescence.
At baseline, alveolar liquid fluorescence (in flooded alveoli of experimental regions or in the liquid lining layer of control, aerated regions) is low and constant in all regions. Following ventilation, alveolar liquid fluorescence remains unchanged in aerated regions but continually increases with time in heterogeneously flooded regions. […] The increase above baseline in normalized alveolar liquid fluorescence at the last time point of the experiment is used as an injury score. The injury score, which indicates the rate of increase of normalized fluorescence following ventilation, correlates with the surface tension of the test solution.

Assay [3] concerns alveoli of isolated rat lungs. As to the kind of experiment: Surface tension determination in the isolated adult rat lung (Method 1), solutions injected into alveoli in situ. To be noted: for surface tension (T): alveolar administration. The method, then:
Method 1. Surface tension determination in the isolated adult rat lung. In an isolated (excised) adult rat lung, the alveolar liquid is labeled with a fluorescent dye verified not to alter surface tension. T is determined as follows at a curved region of the alveolar air-liquid interface (e.g., the meniscus in a flooded alveolus or the corner of an aerated alveolus). Alveolar air pressure is determined with a transducer at the trachea of the constantly-inflated lung. Alveolar liquid phase pressure is determined by servo-nulling pressure measurement. The three-dimensional interfacial radius of curvature is determined by confocal microscopy. The surface tension is calculated according to the Laplace relation.
Alveoli of isolated rat lungs were injected (or flooded) in situ with various solutions or components and the effects on alveolar surface tension were compared. The accompanying FIG. 1 includes a composite bar chart comparing T values resulting from treatment with various solutions or components. Details, including the compositions and concentrations of any administered solutions or components, are shown below the x-axis of the chart. In more detail, the rat lungs were micropunctured, optionally flooded with red blood cell (RBC) homogenate alone, with albumin, or with albumin and SRB. […] Half of these samples receiving the second injection were additionally subjected to 50 ventilation cycles at the noted pressures. Additional experimental details are described in the Methods section of Nguyen, T L and Perlman, C E, “Sulforhodamine B and exogenous surfactant effects on alveolar surface tension under acute respiratory distress syndrome conditions,” J. Appl. Physiol. 2020, 129(6), 1505-1513, the entire content of which is incorporated herein by reference.
With reference to the accompanying FIG. 1 and its chart, the first data point (bar) corresponds to normal, aerated alveoli in normal lungs, as a control. The red blood cell homogenate was added to the remaining data points to simulate epithelial damage and hemorrhaging of the alveolar capillaries, as may be present in some cases of ARDS.

The test system of assay [4] is rats with model lung injury. As to the kind of experiment: Therapeutic IV SRB administration in vivo in rats with model lung injury (injurious ventilation, then 4-hr support). To be noted: rat, target plasma concentration 10 nM. The method, then:
The therapeutic efficiencies of clinical method analogues, including tracheal instillation, intravascular (IV) administration, etc. of various surface tension-lowering components can be tested in an animal following generation of model lung injury in the animal. For example, therapeutic IV SRB administration was tested in vivo in rats with model lung injury, as follows. All animals were handled in accord with a protocol approved by the Stevens Institute of Technology Institutional Animal Care and Use Committee. First, the model lung injury was generated by ventilating an anesthetized rat with an excessive tidal (breath) volume (VT) of 42 ml/kg body weight and an end-expiratory pressure of zero for 15 min to physically injure the lungs. Then, modeling clinical treatment of a patient with lung injury, VT was reduced to a protective level of 6 ml/kg, end-expiratory pressure was increased to a positive, protective level of 2 or 10 cm H2O, and the rat continued to be supported by mechanical ventilation for 4 hrs. SRB was administered IV, targeting a plasma concentration of 10 nM, after the injury period and at the start of the support period, mimicking therapeutic administration after the development of respiratory distress but prior to supportive treatment by mechanical ventilation. Oxygenation was tracked during the 4-hr support period. At the end of the support period, the rat was sacrificed, the lungs were isolated, and alveolar T was determined in situ in the isolated lungs using Method 1, above. In lungs from rats sacrificed at the end of the 4-hr support period, T was determined in one aerated alveolus and one flooded alveolus.

The test system of assay [5] is alveoli of isolated rat lungs. To be noted: injected into alveoli of isolated lungs in situ; SRB 1 nM-1,000 nM with albumin 3-12 w/v % in alveolar liquid; cited from earlier work.
Assay [6] deals with alveolar-capillary barrier of heterogeneously flooded regions, isolated adult rat lung. To be noted: injected into alveoli of isolated lungs in situ; SRB 1 nM-1,000 nM with albumin 3-12 w/v % in alveolar liquid; cited from earlier work.
The subject of another assay is adult rat lung. As to the kind of experiment: Facilitation of dilute […] by negatively charged solutes in the adult rat lung. The settings on record: solute at 5 w/v %. The procedure:
Method 1. […] Alveolar air pressure is determined with a transducer at the trachea of the constantly-inflated lung. Alveolar liquid phase pressure is determined by servo-nulling pressure measurement.

For “GIPFFPVHLKRLLIVVVVVELIVKVIVGALLMGL (SEQ ID NO:3) (sSP-Cff-ion lock)”, the “opening pressure (proportional to surface tension), compared with 100% SURVANTA without albumin” value with immature fetal rat lung is reported as “at least as effective as 100% SURVANTA in the absence of albumin”. Besides, in [1], the “surface tension in the lungs” value is given as “can lower surface tension in the lungs”.

With rhodamine WT, in the assay on lungs, the “redistribution of edema liquid among alveoli” value is given as “promoting equitable redistribution of edema liquid among alveoli” and the surface tension entry is given as “capable of lowering surface tension”.

In the case of “sSP-Cff-ion lock-B: variant of sSP-Cff-ion lock with a biotinylated N-terminal (Biotin-GIPFFPVHLKRLLIVVVVVELIVKVIVGALLMGL)”, the “injury score (thus surface tension)” value in assay [2] is recorded as “lower injury score”. The “surface tension in the lungs” value in [1] is recorded as “can lower surface tension in the lungs”.

Regarding `CCCCCCCCCCCCCCCC(=O)OC[C@H](COP(=O)([O-])OCC[N+](C)(C)C)OC(=O)CCCCCCCCCCCCCCC` [DPPC, dipalmitoylphosphatidylcholine, reference compound], the “injury score (thus surface tension)” value in [2] is “not those containing DPPC or SP-B”.

With “GIPFFPVHLKRLKLLLLLLLLILLLILGALLMGL (SEQ ID NO:2) (sSP-Cff-leuc)”, the “injury score (thus surface tension)” value in assay [2] was “lower injury score”. Moreover, the “surface tension in the lungs” value in assay [1] was “can lower surface tension in the lungs”.

With `CCN(CC)c1ccc2c(-c3ccc(S(=O)(=O)O)cc3S(=O)(=O)[O-])c3ccc(=[N+](CC)CC)cc-3oc2c1` [SRB, sulforhodamine B], the “speed of T lowering compared with exogenous surfactant” value in assay [3] (RBC homogenate plus albumin, FIG. 1) is “acts faster than exogenous surfactant”. Besides, the “surface tension (T)” value in [3] (T increased by cell debris) is “reduce T”. For the same molecule, the “surface tension (T)” value in assay [3] (T increased by secretory phospholipase A2 (sPLA2)) is given as “reduce T”. Also, the “alveolar surface tension (T)” value in assay [3] (alveoli flooded with RBC homogenate, albumin and SRB included, FIG. 1 bars 4, 7, 8) is “immediately decreased/normalized”. In assay [4], the “plasma markers of lung injury and inflammation” value was “reduce plasma markers of lung injury and inflammation”; the “ventilation-induced lung injury (VILI)” value was “reduce VILI”. In assay [4] (after injury period, end of 4-hr support period), the “alveolar surface tension (T), determined in isolated lungs after sacrifice” value is “reduce surface tension specifically in flooded/injured alveoli”. Besides, in [4] (tracked during 4-hr support period), the oxygenation result is given as “improve oxygenation”. Moreover, in assay [5], the surface tension result is listed as “lower surface tension”. Further, the “ventilation injury of flooded alveoli” value in assay [6] is “protect against ventilation injury of flooded alveoli”. Also, in the assay on lungs, the “redistribution of edema liquid among alveoli” value was “promoting equitable redistribution of edema liquid among alveoli” and the surface tension result is recorded as “capable of lowering surface tension”.

As for fibrinogen, the “facilitation of the surface activity of 1 vol % SURVANTA” value with adult rat lung is “also facilitate 1 vol % SURVANTA®”.

B1: SP-B: surfactant protein B isolated from pulmonary alveolar proteinosis patients (protein, UniProt P07988 201-279, looked up)
Pulmonary …: FPIPLPYCWLCRALIKRIQAMIPKGALAVAVAQVCRVVPLVAGGICQCLAERYSVILLDTLLGRMLPQLVCRLVLRCSM
modifications: Pulmonary surfactant-associated protein B
notes: surfactant protein B isolated from pulmonary alveolar proteinosis patients
In the case of B1, in assay [2], the “injury score (thus surface tension)” value is listed as “not those containing DPPC or SP-B”.
